Source: US9284286B2, “Specific carboxamides as KCNQ2/3 modulators” (GRÜNENTHAL GMBH, priority 2012, dated 2016)

Molecular target: T1, KCNQ2/3 channels (Homo sapiens, UniProt O43525+O43526)
T1 construct: expressed in transfected cells; host or cells: CHO-K1
Assay: Fluorescence assay using a voltage sensitive dye (fluorimetry)
Format: cell-based
Conditions: CHO-K1 cells expressing KCNQ2/3 channels; for Emax: relative to retigabine = 100%, read-out: Fluorimetry % Efficacy (retigabine = 100%); for EC50: voltage-sensitive dye, KCl depolarisation, read-out: Fluorimetry EC50/IC50
Method: Pharmacological Experiments Fluorescence Assay Using a Voltage Sensitive Dye (Fluorimetry)
Human CHO-K1 cells expressing KCNQ2/3 channels are cultivated adherently at 37° C., 5% CC2 and 95% humidity in cell culture bottles (e.g. 80 cm^2 TC flasks, Nunc) with DMEM-high glucose (Sigma Aldrich, D7777) including 10% FCS (PAN Biotech, e.g. 3302-P270521) or alternatively MEM Alpha Medium (1×, liquid, Invitrogen, #22571), 10% fetal calf serum (FCS) (Invitrogen, #10270-106, heat-inactivated) and the necessary selection antibiotics.
Before being sown out for the measurements, the cells are washed with 1×DPBS buffer Ca^2+/Mg^2+-free (e.g. Invitrogen, #14190-094) and detached from the bottom of the culture vessel by using Accutase (PAA Laboratories, #L11-007) (incubation with Accutase for 15 min at 37° C.). The cell number is determined using a CASY™ cell counter (TCC, Schärfe System). Depending on the optimal density for each individual cell line, 20,000-30,000 cells/well/100 μl are seeded onto 96-well Corning™ CeIIBIND™ assay plates (Flat Clear Bottom Black Polystyrene Microplates, #3340). Freshly seeded cells are then left to settle for one hour at room temperature, followed by incubation for 24 hours at 37° C., 5% CO2 and 95% humidity.
The voltage-sensitive fluorescent dye from the Membrane Potential Assay Kit (Red™ Bulk format part R8123 for FLIPR, MDS Analytical Technologies™) is prepared by dissolving the contents of one vessel Membrane Potential Assay Kit Red Component A in 200 ml of extracellular buffer (ES buffer, 120 mM NaCl, 1 mM KCl, 10 mM HEPES, 2 mM CaCl2, 2 mM MgCl2, 10 mM glucose; pH 7.4). After removal of the nutrient medium, the cells are washed once with 200 μl of ES buffer, then loaded for 45 min at room temperature in 100 μl of dye solution in the dark.
Fluorescence measurements are carried out in a BMG Labtech FLUOstar™, BMG Labtech NOVOstar™ or BMG Labtech POLARstar™ instrument (525 nm excitation, 560 nm emission, Bottom Read mode). After incubation with the dye, 50 μl of the test substances in the desired concentrations, or 50 μl of ES buffer for control purposes, are applied to the wells of the assay plate and incubated for 30 min at room temperature while being shielded from light. The fluorescence intensity of the dye is then measured for 5 min and the fluorescence value F1 of each well is thus determined at a given, constant time. 15 μl of a KCl solution are then added to each well (final concentration of potassium ions 92 mM). The change in fluorescence intensity is subsequently monitored until all the relevant values have been obtained (mainly 5-30 min). At a given time post KCl application, a fluorescence value F2 is determined, in this case at the time of the fluorescence peak.
For calculation, the fluorescence intensity F2 is corrected for the fluorescence intensity F1, and the activity (ΔF/F) of the target compound on the potassium channel is determined as follows:
In order to determine whether a substance has agonistic activity,
[formula] can be related to
[formula] of control wells.
[formula] is determined by adding to the well only the buffer solution instead of the test substance, determining the value F1K of the fluorescence intensity, adding the potassium ions as described above, and measuring a value F2K of the fluorescence intensity. F2K and F1K are then calculated as follows: […]
A substance has an agonistic activity on the potassium channel if
[formula] is greater than
Independently of the comparison of
[formula] it is possible to conclude that a target compound has agonistic activity if
[formula] increases dose dependently.
Calculations of EC50 and IC50 values are carried out with the aid of ‘Prism v4.0’ software (GraphPad Software™).

Row | Structure (SMILES) | Emax [%] | EC50 [nM]
1 | CC(C)CCNC(=O)c1ccccc1SCCC(F)(F)c1ccc(F)cc1 [Example 1, 2-[[3,3-Difluoro-3-(4-fluorophenyl)-propyl]sulfanyl]-N-(3-methyl-butyl)-benzamide] | 203 | 156
2 | CC(C)(C)CCNC(=O)c1ccccc1SCCCc1ccc(F)cc1 [Example 2, N-(3,3-Dimethyl-butyl)-2-[3-(4-fluorophenyl)-propylsulfanyl]-benzamide] | 186 | 501
3 | CC(C)CCNC(=O)c1ncccc1SCCC(F)(F)c1ccc(F)cc1 [Example 3, 3-[[3,3-Difluoro-3-(4-fluorophenyl)-propyl]sulfanyl]-N-(3-methyl-butyl)-pyridine-2-carboxylic acid amide] | 118 | 1590
4 | CC(C)CCNC(=O)c1cnccc1SCCC(F)(F)c1ccc(F)cc1 [Example 5, 4-[[3,3-Difluoro-3-(4-fluorophenyl)-propyl]sulfanyl]-N-(3-methyl-butyl)-pyridine-3-carboxylic acid amide] | 228 | 849
5 | O=C(NCc1ccc(F)cc1)c1cnccc1SCCC(F)(F)c1ccc(F)cc1 [Example 6, 4-[[3,3-Difluoro-3-(4-fluorophenyl)-propyl]sulfanyl]-N-[(4-fluorophenyl)-methyl]-pyridine-3-carboxylic acid amide] | 121 | 563
6 | CC(C)CCNC(=O)c1ccncc1SCCC(F)(F)c1ccc(F)cc1 [Example 7, 3-[[3,3-Difluoro-3-(4-fluorophenyl)-propyl]sulfanyl]-N-(3-methyl-butyl)-pyridine-4-carboxylic acid amide] | 197 | 1400
7 | CC(C)CCNC(=O)c1nccnc1SCCC(F)(F)c1ccc(F)cc1 [Example 9, 3-[[3,3-Difluoro-3-(4-fluorophenyl)-propyl]sulfanyl]-N-(3-methyl-butyl)-pyrazine-2-carboxylic acid amide] | 199 | 521
8 | CC(C)CCNC(=O)c1cncnc1SCCC(F)(F)c1ccc(F)cc1 [Example 10, 4-[[3,3-Difluoro-3-(4-fluorophenyl)-propyl]sulfanyl]-N-(3-methyl-butyl)-pyrimidine-5-carboxylic acid amide] | 211 | 61
9 | O=C(NCc1ccc(F)cc1)c1cncnc1SCCC(F)(F)c1ccc(F)cc1 [Example 11, 4-[[3,3-Difluoro-3-(4-fluorophenyl)-propyl]sulfanyl]-N-[(4-fluorophenyl)-methyl]-pyrimidine-5-carboxylic acid amide] | 112 | 51
10 | CC(C)CCNC(=O)c1ccnnc1SCCC(F)(F)c1ccc(F)cc1 [Example 12, 3-[[3,3-Difluoro-3-(4-fluorophenyl)-propyl]sulfanyl]-N-(3-methyl-butyl)-pyridazine-4-carboxylic acid amide] | 203 | 427
11 | O=C(NCc1ccc(F)cc1)c1ccnnc1SCCC(F)(F)c1ccc(F)cc1 [Example 13, 3-[[3,3-Difluoro-3-(4-fluorophenyl)-propyl]sulfanyl]-N-[(4-fluorophenyl)-methyl]-pyridazine-4-carboxylic acid amide] | 100 | 264
12 | Cc1nc(SCCC(F)(F)c2ccc(F)cc2)c(C(=O)NCc2ccc(F)cc2)s1 [Example 15, 4-[[3,3-Difluoro-3-(4-fluorophenyl)-propyl]sulfanyl]-N-[(4-fluorophenyl)-methyl]-2-methyl-thiazole-5-carboxylic acid amide] | 83 | 231
